According to patent US6750330B1, “Lyophilized tubulins” (priority 1998, dated 2004):

Tested on: MAP-rich tubulin
Test: 96-well plate polymerization assay of tubulin ligands with lyophilized active tubulin
Format: biochemical, bovine
Settings: for rate of polymerization with increasing concentration: 20 minutes at 24° C., 100 μg/well MAP-rich tubulin; for effect on microtubule polymerization (O.D. 340 nm): 60 minutes at 24° C., 96-well plate
Procedure: The dried powder was resuspended to 1 mg/ml protein in the G-PEM buffer that contained different tubulin ligands. The reactions were incubated at 24° C. and the optical density was determined between T=O and T=60 min. Wells A1, A2—duplicate control reactions; wells B1, B2—Duplicate 3 uM nocodazole reactions, and wells C1, C2—Duplicate 3 uM paclitaxel reactions. Other duplicate wells contained buffer with a random concentration of nocodazole between 0-30 uM.
Similar protocols were performed as in FIG. 9 legend except that paclitaxel was present at different concentrations and assays were performed in triplicate. Average nucleation (Onset) times, polymerization rates and maximum OD340 nm were compared to the control reactions (no drug) using CytoDYNAMIX Screen™ data analysis package (Cytoskeleton, Inc.).
Similar protocols were performed as in FIG. 9 legend except that nocodazole was present at different concentrations and assays were performed in triplicate. Average nucleation (Onset) times, polymerization rates and maximum OD340 nm were compared to the control reactions (no drug) using CytoDYNAMIX Screen™ data analysis package (Cytoskeleton, Inc.).
Nocodazole is similarly used as a negative control since it depolymerizes microtubules. Substances that may potentially have an effect on microtubule polymerization can be assayed by this method in which the optical density was measured at 340 nm over 60 minutes at a temperature sufficient to support polymerization (i.e., 15-45° C., preferably 24° C. for MAP-rich or 37° C. for pure tubulin).
MAP-rich tubulin (100 μg/well) was lyophilized under the optimal conditions described in Example 1, in a 96-well plate. Ninety-six wells in a 96-well plate of lyophilized tubulin can be simultaneously reconstituted and their polymerization measured (See FIG. 8). […] In a similar manner, using an 8-channel hand held pipettor, various random nocodazole concentrations were tested for activity. In addition, controls were added to the assay. […] Nocodazole was similarly used as a negative control since it depolymerizes microtubules. The optical density was measured at 340 nm over 60 minutes at 24° C. as an indication of microtubule polymerization (See FIG. 9).
Paclitaxel and nocodazole, anti-tumor agents, were assayed in G-PER buffer with lyophilized active tubulin.

| SMILES | rate of polymerization with increasing concentration | effect on microtubule polymerization (O.D. 340 nm) |
| --- | --- | --- |
| COC(=O)Nc1nc2ccc(C(=O)c3cccs3)cc2[nH]1 [nocodazole] | decrease in the rate of polymerization | negative |
| CC(=O)O[C@H]1C(=O)[C@@]2(C)[C@H]([C@H](OC(=O)c3ccccc3)[C@]3(O)C[C@H](OC(=O)[C@H](O)[C@@H](NC(=O)c4ccccc4)c4ccccc4)C(C)=C1C3(C)C)[C@]1(OC(C)=O)CO[C@@H]1C[C@@H]2O [paclitaxel] | increased rate of polymerization | enhancing |
